# Measured values as given in publication PMC11754874, “Novel inhibitors of the (VIBVN) NAT protein identified through pharmacophore modeling” (Scientific Reports, 2025).
# Biological target: (VIBVN)NAT (arylamine N-acetyltransferase)
# Test: DTNB assay of AcCoA-dependent acetylation, absorbance at […] nm
# Type: biochemical, Vibrio vulnificus
smiles,measurement,value
CCCS(=O)(=O)c1c(S(=O)(=O)CCC)c2ccccn2c1C(=O)N/N=C/c1cc(OC)ccc1O [AG-205-36710025],IC50,33.3 µM
